Numbers after ± are expanded uncertainties.
Assay: xn = mol fraction of the nth substance listed
Conditions: for viscosity / speed of sound: 102 kPa, Liquid; for viscosity: Concentric cylinders viscometry; for speed of sound: Frequency=3 MHz, Sing-around technique in a fixed-path interferometer; for surface tension liquid-gas: 294.4 K, Sessile Drop

CCCCC1CCCCC1 [butylcyclohexane] + Cc1ccccc1
Conditions	speed of sound [m/s]	viscosity [mPa·s]
293.15 K, x1 = 0.0681	1321.1 ± 0.8	0.622 ± 0.011
293.15 K, x1 = 0.1544	1316.7 ± 1.2	0.649 ± 0.011
293.15 K, x1 = 0.2197	1314.5 ± 0.8	0.678 ± 0.011
293.15 K, x1 = 0.3045	1313 ± 0.8	0.721 ± 0.011
293.15 K, x1 = 0.3964	1312.8 ± 0.8	0.774 ± 0.012
293.15 K, x1 = 0.4964	1313.5 ± 0.8	0.838 ± 0.012
293.15 K, x1 = 0.6046	1315.6 ± 0.8	0.916 ± 0.012
293.15 K, x1 = 0.7244	1318.9 ± 0.8	1.02 ± 0.01
293.15 K, x1 = 0.8548	1323.3 ± 0.8	1.16 ± 0.02
293.15 K, x1 = 1	–	1.31 ± 0.01
303.15 K, x1 = 0.0681	1278.6 ± 0.8	0.552 ± 0.011
303.15 K, x1 = 0.1544	1274.6 ± 1.1	0.578 ± 0.011
303.15 K, x1 = 0.2197	1272.7 ± 0.8	0.603 ± 0.011
303.15 K, x1 = 0.3045	1271.6 ± 0.8	0.638 ± 0.011
303.15 K, x1 = 0.3964	1271.6 ± 0.8	0.683 ± 0.011
303.15 K, x1 = 0.4964	1272.7 ± 0.8	0.735 ± 0.011
303.15 K, x1 = 0.6046	1275 ± 0.8	0.8 ± 0.012
303.15 K, x1 = 0.7244	1278.6 ± 0.8	0.885 ± 0.012
303.15 K, x1 = 0.8548	1283.3 ± 0.8	0.991 ± 0.021
303.15 K, x1 = 1	–	1.12 ± 0.01
313.15 K, x1 = 0.0681	1236.5 ± 0.8	0.495 ± 0.011
313.15 K, x1 = 0.1544	1232.9 ± 0.8	0.518 ± 0.011
313.15 K, x1 = 0.2197	1231.4 ± 0.8	0.538 ± 0.011
313.15 K, x1 = 0.3045	1230.6 ± 0.8	0.568 ± 0.011
313.15 K, x1 = 0.3964	1230.9 ± 0.8	0.607 ± 0.011
313.15 K, x1 = 0.4964	1232.3 ± 0.8	0.651 ± 0.011
313.15 K, x1 = 0.6046	1234.9 ± 0.8	0.704 ± 0.011
313.15 K, x1 = 0.7244	1238.8 ± 0.8	0.775 ± 0.012
313.15 K, x1 = 0.8548	1243.7 ± 0.8	0.862 ± 0.021
313.15 K, x1 = 1	–	0.961 ± 0.012
323.15 K, x1 = 0.0681	1194.9 ± 0.8	0.446 ± 0.011
323.15 K, x1 = 0.1544	1191.8 ± 0.8	0.466 ± 0.011
323.15 K, x1 = 0.2197	1190.6 ± 0.8	0.484 ± 0.011
323.15 K, x1 = 0.3045	1190.1 ± 0.8	0.51 ± 0.011
323.15 K, x1 = 0.3964	1190.7 ± 0.8	0.541 ± 0.011
323.15 K, x1 = 0.4964	1192.5 ± 0.8	0.58 ± 0.011
323.15 K, x1 = 0.6046	1195.4 ± 0.8	0.625 ± 0.011
323.15 K, x1 = 0.7244	1199.6 ± 0.8	0.683 ± 0.011
323.15 K, x1 = 0.8548	1204.8 ± 0.8	0.754 ± 0.021
323.15 K, x1 = 1	–	0.837 ± 0.012
333.15 K, x1 = 0.0681	1153.9 ± 0.8	0.405 ± 0.011
333.15 K, x1 = 0.1544	1151.2 ± 0.7	0.422 ± 0.011
333.15 K, x1 = 0.2197	1150.3 ± 0.7	0.437 ± 0.011
333.15 K, x1 = 0.3045	1150.2 ± 0.7	0.46 ± 0.011
333.15 K, x1 = 0.3964	1151.1 ± 0.8	0.486 ± 0.011
333.15 K, x1 = 0.4964	1153.2 ± 0.8	0.519 ± 0.011
333.15 K, x1 = 0.6046	1156.5 ± 0.8	0.558 ± 0.011
333.15 K, x1 = 0.7244	1161 ± 0.8	0.604 ± 0.011
333.15 K, x1 = 0.8548	1166.5 ± 0.8	0.663 ± 0.021
333.15 K, x1 = 1	–	0.735 ± 0.011
343.15 K, x1 = 0.0681	–	0.37 ± 0.011
343.15 K, x1 = 0.1544	–	0.379 ± 0.011
343.15 K, x1 = 0.2197	–	0.397 ± 0.011
343.15 K, x1 = 0.3045	–	0.418 ± 0.011
343.15 K, x1 = 0.3964	–	0.438 ± 0.011
343.15 K, x1 = 0.4964	–	0.469 ± 0.011
343.15 K, x1 = 0.6046	–	0.502 ± 0.011
343.15 K, x1 = 0.7244	–	0.535 ± 0.011
343.15 K, x1 = 0.8548	–	0.586 ± 0.021
343.15 K, x1 = 1	–	0.648 ± 0.011
353.15 K, x1 = 0.0681	–	0.325 ± 0.011
353.15 K, x1 = 0.1544	–	0.345 ± 0.011
353.15 K, x1 = 0.2197	–	0.356 ± 0.011
353.15 K, x1 = 0.3045	–	0.373 ± 0.011
353.15 K, x1 = 0.3964	–	0.395 ± 0.011
353.15 K, x1 = 0.4964	–	0.426 ± 0.011
353.15 K, x1 = 0.6046	–	0.451 ± 0.011
353.15 K, x1 = 0.7244	–	0.49 ± 0.011
353.15 K, x1 = 0.8548	–	0.532 ± 0.021
353.15 K, x1 = 1	–	0.576 ± 0.011

Conditions	surface tension liquid-gas [mN/m]
x1 = 0.0681	28.1 ± 0.2
x1 = 0.1544	27.7 ± 0.2
x1 = 0.2197	27.5 ± 0.2
x1 = 0.3045	27.3 ± 0.2
x1 = 0.3964	27.2 ± 0.2
x1 = 0.4964	27 ± 0.2
x1 = 0.6046	26.9 ± 0.2
x1 = 0.7244	26.7 ± 0.2

CCCCC1CCCCC1 [butylcyclohexane] + CCCCCCCCCCCCCCCC
Conditions	speed of sound [m/s]	viscosity [mPa·s]
293.15 K, x1 = 0.1524	1353.6 ± 0.8	3.07 ± 0.02
293.15 K, x1 = 0.2876	1349.9 ± 0.8	2.76 ± 0.03
293.15 K, x1 = 0.4091	1346.4 ± 0.8	2.48 ± 0.03
293.15 K, x1 = 0.5182	1343.3 ± 0.8	2.25 ± 0.03
293.15 K, x1 = 0.6173	1340.4 ± 0.8	2.04 ± 0.03
293.15 K, x1 = 0.7078	1337.4 ± 0.8	1.86 ± 0.02
293.15 K, x1 = 0.7902	1334.9 ± 0.8	1.7 ± 0.02
293.15 K, x1 = 0.8658	1332.7 ± 0.8	1.55 ± 0.02
293.15 K, x1 = 0.9355	1330.4 ± 0.8	1.42 ± 0.02
293.15 K, x1 = 1	–	1.31 ± 0.01
303.15 K, x1 = 0.1524	1316.4 ± 0.8	2.46 ± 0.02
303.15 K, x1 = 0.2876	1312.6 ± 0.8	2.23 ± 0.02
303.15 K, x1 = 0.4091	1309 ± 0.8	2.03 ± 0.02
303.15 K, x1 = 0.5182	1305.6 ± 0.8	1.85 ± 0.02
303.15 K, x1 = 0.6173	1302.5 ± 0.8	1.69 ± 0.02
303.15 K, x1 = 0.7078	1299.2 ± 0.8	1.55 ± 0.02
303.15 K, x1 = 0.7902	1296.4 ± 0.8	1.42 ± 0.02
303.15 K, x1 = 0.8658	1293.8 ± 0.8	1.31 ± 0.02
303.15 K, x1 = 0.9355	1291.2 ± 0.8	1.21 ± 0.02
303.15 K, x1 = 1	–	1.12 ± 0.01
313.15 K, x1 = 0.1524	1279.7 ± 0.8	2.01 ± 0.01
313.15 K, x1 = 0.2876	1275.8 ± 0.8	1.84 ± 0.02
313.15 K, x1 = 0.4091	1272 ± 0.8	1.68 ± 0.02
313.15 K, x1 = 0.5182	1268.5 ± 0.8	1.54 ± 0.02
313.15 K, x1 = 0.6173	1265.1 ± 0.8	1.42 ± 0.02
313.15 K, x1 = 0.7078	1261.5 ± 0.8	1.31 ± 0.02
313.15 K, x1 = 0.7902	1258.3 ± 0.8	1.21 ± 0.02
313.15 K, x1 = 0.8658	1255.3 ± 0.8	1.12 ± 0.02
313.15 K, x1 = 0.9355	1252.3 ± 0.8	1.03 ± 0.02
313.15 K, x1 = 1	–	0.961 ± 0.012
323.15 K, x1 = 0.1524	1243.6 ± 0.8	1.68 ± 0.01
323.15 K, x1 = 0.2876	1239.6 ± 0.8	1.54 ± 0.02
323.15 K, x1 = 0.4091	1235.5 ± 0.8	1.42 ± 0.02
323.15 K, x1 = 0.5182	1231.8 ± 0.8	1.31 ± 0.02
323.15 K, x1 = 0.6173	1228.2 ± 0.8	1.21 ± 0.02
323.15 K, x1 = 0.7078	1224.3 ± 0.8	1.12 ± 0.02
323.15 K, x1 = 0.7902	1220.8 ± 0.8	1.04 ± 0.02
323.15 K, x1 = 0.8658	1217.6 ± 0.8	0.966 ± 0.015
323.15 K, x1 = 0.9355	1214.1 ± 0.8	0.897 ± 0.015
323.15 K, x1 = 1	–	0.837 ± 0.012
333.15 K, x1 = 0.1524	1208.1 ± 0.8	1.42 ± 0.01
333.15 K, x1 = 0.2876	1203.9 ± 0.8	1.31 ± 0.02
333.15 K, x1 = 0.4091	1199.7 ± 0.8	1.21 ± 0.02
333.15 K, x1 = 0.5182	1195.7 ± 0.8	1.13 ± 0.02
333.15 K, x1 = 0.6173	1191.8 ± 0.8	1.05 ± 0.02
333.15 K, x1 = 0.7078	1187.6 ± 0.8	0.972 ± 0.014
333.15 K, x1 = 0.7902	1183.9 ± 0.8	0.906 ± 0.014
333.15 K, x1 = 0.8658	1180.3 ± 0.8	0.844 ± 0.014
333.15 K, x1 = 0.9355	1176.4 ± 0.8	0.783 ± 0.014
333.15 K, x1 = 1	–	0.735 ± 0.011
343.15 K, x1 = 0.1524	–	1.22 ± 0.01
343.15 K, x1 = 0.2876	–	1.13 ± 0.01
343.15 K, x1 = 0.4091	–	1.05 ± 0.01
343.15 K, x1 = 0.5182	–	0.977 ± 0.014
343.15 K, x1 = 0.6173	–	0.912 ± 0.013
343.15 K, x1 = 0.7078	–	0.851 ± 0.013
343.15 K, x1 = 0.7902	–	0.797 ± 0.013
343.15 K, x1 = 0.8658	–	0.745 ± 0.014
343.15 K, x1 = 0.9355	–	0.694 ± 0.014
343.15 K, x1 = 1	–	0.648 ± 0.011
353.15 K, x1 = 0.1524	–	1.06 ± 0.01
353.15 K, x1 = 0.2876	–	0.987 ± 0.013
353.15 K, x1 = 0.4091	–	0.921 ± 0.013
353.15 K, x1 = 0.5182	–	0.86 ± 0.013
353.15 K, x1 = 0.6173	–	0.805 ± 0.013
353.15 K, x1 = 0.7078	–	0.753 ± 0.013
353.15 K, x1 = 0.7902	–	0.706 ± 0.013
353.15 K, x1 = 0.8658	–	0.662 ± 0.013
353.15 K, x1 = 0.9355	–	0.619 ± 0.013
353.15 K, x1 = 1	–	0.576 ± 0.011

Conditions	surface tension liquid-gas [mN/m]
x1 = 0.1524	26.9 ± 0.2
x1 = 0.2876	26.9 ± 0.2
x1 = 0.4091	26.9 ± 0.2
x1 = 0.5182	26.8 ± 0.2
x1 = 0.6173	26.8 ± 0.2
x1 = 0.7078	26.8 ± 0.2
x1 = 0.7902	26.7 ± 0.2
x1 = 0.8658	26.7 ± 0.2
x1 = 0.9355	26.7 ± 0.2

Reference: the NIST ThermoML archive (doi:10.1021/acs.jced.6b00516)
